Where a name gives a salt, the structure may show the parent alone.
Assays:
PPAR-α = biological target: T1, PPAR-α (Homo sapiens, UniProt Q07869); assay: Measurement of PPAR-α activity (GAL4 luciferase reporter assay in CV-1 cells); format: cell-based; settings: 100(A/B): A = maximum PPAR-α activity of test compound at 3, 10, 30 and 100 μM, B = activity of the compound of WO/2011/058154 at 100 μM, 18 to 20 hours, read-out: Relative fold induction (%) of PPAR α
T1 construct: expressed in transfected cells; host or cells: CV-1 (African green monkey kidney)
T1 sequence (Q07869 167-468): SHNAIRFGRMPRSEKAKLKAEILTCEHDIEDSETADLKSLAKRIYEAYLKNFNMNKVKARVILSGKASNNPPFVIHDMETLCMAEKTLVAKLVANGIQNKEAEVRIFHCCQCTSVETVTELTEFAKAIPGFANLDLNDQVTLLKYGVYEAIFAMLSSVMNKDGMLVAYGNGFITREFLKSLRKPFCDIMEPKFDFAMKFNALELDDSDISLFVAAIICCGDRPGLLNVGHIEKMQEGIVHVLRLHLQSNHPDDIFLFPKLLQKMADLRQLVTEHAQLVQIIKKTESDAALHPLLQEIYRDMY
How it was run: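 CV-1 cells were co-transfected with a UAS×5-TK-Luc reporter and a hGR-GAL4-hPPARα (LBD 167-468aa) expression plasmid, then dosed with compound for 18 to 20 h at 37 °C, with Bright-Glo luciferase read-out. Relative fold induction (%) is the maximum activity at 3, 10, 30 or 100 μM divided by the activity of a WO/2011/058154 reference compound at 100 μM.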

[1] = system: Rat skeletal muscle-derived L6 myoblasts (differentiated into myotube cells); assay: Evaluation of glycogen accumulation in L6; format: cell-based; settings: [14C] glycogen from D-[U-C14] glucose, 3 hours incubation, 100% = compound of Example 1 of WO/2011/058154 at 30 μM
Experimental: The glycogen accumulation activity was evaluated in skeletal muscle cells according to the published article (ANALYTICAL BIOCHEMISTRY, Vol. 261: 159-163, 1998) by the following method. Rat skeletal muscle-derived L6 myoblasts (ATCC) were seeded in a 96-well collagen-coated plate (IWAKI, 4860-010) by using a growth medium (10% FBS-containing α-MEM medium (NACALAI TESQUE, INC., 21444-05)) under a condition of 4×10^4 cells/100 μL/well. After culturing under conditions of 37° C. and 5% CO2 overnight, the medium was replaced with a differentiation medium (2% FBS-containing α-MEM medium), followed by culturing for 3 days to differentiate the myoblasts into myotube cells. On the day of evaluation, the medium was replaced with a glucose-deprived medium (0.1% BSA-containing DMEM medium (Gibco, 11966)). After culturing for 4 hours, the medium was replaced with assay media (0.1% BSA-containing DMEM medium (NACALAI TESQUE, INC., 08456-65)) containing 0.6% DMSO and one of the test compounds at a concentration which was twice the final evaluation concentration at 15 μL/well. Further, an assay medium containing D-[U—C14] glucose (PerkinElmer Inc., NEC042V) at […] was added at 15 μL/well to adjust the final volume to 30 μL/well. Then, the cells were incubated under conditions of 37° C. and 5% CO2 for 3 hours. After the incubation, each medium was removed by suction with an aspirator, and the wells were rinsed with PBS at 200 μL/well twice. Then, 1 N NaOH was added at 50 μL/well, and the cells were lysed by incubation at 60° C. for 10 minutes. After the temperature of the lysed cells was returned to room temperature, each whole cell lysate and […] glycogen (Sigma-Aldrich, G8876) at 5 μL/well were added to a Multiscreen HTS (Millipore, MSFCN6B) to which 100% ethanol was added in advance at 100 μL/well, followed by incubation at 4° C. for 20 minutes. After the incubation, aspiration was conducted by using Multiscreen HTS Vacuum Manifold (Millipore), followed by rinse with 66% ethanol at 200 μL/well twice. After ethanol remaining on the filter was completely removed by drying, MicroScint40 (PerkinElmer Inc.) was added at 50 μL/well, the amount of [14C] glycogen was measured with TopCountNXT (PerkinElmer Inc.). The activity of each test compound was calculated by the following method. Specifically, the relative activity (%) was calculated as 100×(B−A)/(C−A), where A represents a value (cpm) measured for a well not containing the compound but containing only DMSO, B represents a value measured for a well containing the compound and DMSO, and C represents a value measured for a well containing the compound of Example 1 of WO/2011/058154 at a final concentration of 30 μM. EC50 representing the concentration of the compound at which an increase in activity by 50% was caused was calculated using XLfit (idbs).

| Compound | Emax (PPAR-α) [%] | EC50 [1] [nM] |
| --- | --- | --- |
| COCCN(CC(=O)O)C(=O)c1cccc(COc2ccc(-c3cc(F)c(F)cc3SC)cc2)c1 [Example 6, 2-[[3-[[4-(4,5-Difluoro-2-methylsulfanyl-phenyl)phenoxy]methyl]benzoyl]-(2-methoxyethyl)amino]acetic Acid] | 86 | 570 |
| CSc1cc(F)c(F)cc1-c1ccc(OCc2cccc(C(=O)N(CC(=O)O)Cc3ccccn3)c2)cc1 [Example 20, 2-[[3-[[4-(4,5-Difluoro-2-methylsulfanyl-phenyl)phenoxy]methyl]benzoyl]-(2-pyridylmethyl)amino]acetic Acid Trifluoroacetate] | 13 | 710 |
| CNCCN(CC(=O)O)C(=O)c1cccc(COc2ccc(-c3cc(F)c(F)cc3SC)cc2)c1 [Example 28, 2-[[3-[[4-(4,5-Difluoro-2-methylsulfanyl-phenyl)phenoxy]methyl]benzoyl]-[2-(methylamino)ethyl]amino]acetic Acid Trifluoroacetate] | 10 | < 300 |
| CSc1cc(F)c(F)cc1-c1ccc(OCc2cccc(C(=O)N(CC(=O)O)CC3CCNCC3)c2)cc1 [Example 35, 2-[[3-[[4-(4,5-Difluoro-2-methylsulfanyl-phenyl)phenoxy]methyl]benzoyl]-(4-piperidylmethyl)amino]acetic Acid Trifluoroacetate] | 8.5 | 630 |
| CSc1cc(F)c(F)cc1-c1ccc(OCc2cccc(C(=O)N(CCN3CCCC3)CC(=O)O)c2)cc1 [Example 40, 2-[[3-[[4-(4,5-Difluoro-2-methylsulfanyl-phenyl)phenoxy]methyl]benzoyl]-(2-pyrrolidin-1-ylethyl)amino]acetic Acid Trifluoroacetate] | 9.4 | 5400 |
| CSc1cc(F)c(F)cc1-c1ccc(OCc2cccc(C(=O)N(CC(=O)O)Cc3ncco3)c2)cc1 [Example 42, 2-[[3-[[4-(4,5-Difluoro-2-methylsulfanyl-phenyl)phenoxy]methyl]benzoyl]-(oxazol-2-ylmethyl)amino]acetic Acid] | 13 | 880 |
| COC[C@H]1CC[C@@H](C(=O)O)N1C(=O)c1cccc(COc2ccc(-c3cc(F)c(F)cc3SC)cc2)c1 [Example 65, (2S,5R)-1-[3-[[4-(4,5-Difluoro-2-methylsulfanyl-phenyl)phenoxy]methyl]benzoyl]-5-(methoxymethyl)pyrrolidine-2-carboxylic Acid] | 7 | 1800 |
| O=C(O)CN(C(=O)c1cccc(COc2ccc(-c3cc(F)c(F)c4ccoc34)cc2)c1)C1CCNC1=O (stereo not drawn) [Example 82, 2-[[3-[[4-(4,5-Difluorobenzofuran-7-yl)phenoxy]methyl]benzoyl]-(2-oxopyrrolidin-3-yl)amino]acetic Acid] | 11 | – |

— patent publication US20160046592A1, “PHARMACEUTICAL COMPOSITION FOR THE TREATMENT OF DIABETES” (Ajinomoto Co., Inc., priority 2013, published 2016)
